Where “and” joins values, the source holds several entries; their conditions need not be identical. Identical values can stand only once. Entries after “also recorded” stand apart in the source; their conditions may differ. Like-named read-outs stand apart in the source and are kept apart here.
Legend:
[1] = test system: prostaglandin synthetase system; conditions: variety of models; cited from earlier work
[2] = design: species or system mouse (Charles River CD-1); conditions: mouse, in vivo
[3] = Mouse Carrageenan Edema Test; type: in vivo, mouse (Charles River CD-1, female); conditions: 3 h after carrageenan; for Paw Volume (edema volume): ± S.D.
Protocol: The basic experimental procedure was adapted from Sophia et al., J. Pharma. Exper. Ther. 186:646, 1973. Charles Rivier CD-1 female mice (20-25 g) were given a dose of either Δ^1 -THC-7-oic-acid, indomethacin or vehicle (control). All compounds were administered orally in a 20 ul volume of peanut oil. One hour later, 0.05 ml of a 1% solution of calcium carrageenan in saline was injected subcutaneously into the plantar surface of the right hind paw. The volume of the injected foot to the level of the lateral malleolus was measured by water displacement immediately before oral drug administration and again three hours after carrageenan injection. The difference between the two measurements was called edema volume. The effectiveness of each compound was analyzed in the following manner. For Δ^1 -THC-7-oic-acid, the mean paw volumes, before and after the metabolite was administered, were statistically compared by one-way ANOVA (analysis of variance) and Fisher PLSD Scheffe t-tests. For indomethacin, the mean paw volumes, pre- and postdrug, were statistically compared using the student's t-test. The percent inhibition of edema volume was obtained from the ratio of the predrug volume to the postdrug volume (Table II).

[4] = rhesus monkey; cited from earlier work
prostaglandin synthesis = conditions: metabolite added to culture medium prior to THC exposure; cited from earlier work
[5] = humans; cited from earlier work
Rat Ulcerogenicity Test = type: in vivo, rat (Charles River CD); conditions: for Incidence (number of rats with lesions/total tested) / Mean Score of gastric mucosal lesions: stomach tube, 1 h; for Mean Score of gastric mucosal lesions: scale 0 (normal mucosa) to 3 (erosions longer than 5 mm or confluent hemorrhages)
Protocol: Experimental groups of 5-11 rats (Charles River CD) were fasted for 24 hours before the administration of either aspirin, Δ^1 -THC-7-oic-acid or indomethacin by a rubber stomach tube (Rusch No. 8). The animals were killed 1 hour later by carbon dioxide asphyxiation. At that time, 4 ml of 10% aqueous buffered formaldehyde (formalin) was injected directly into the stomach of each animal. This in situ intraluminal fixation with formalin was especially critical for the assessment of small gastric erosions induced by aspirin since the overlying hemorrhage could easily be removed by rinsing the unfixed stomach. After 5 minutes of in situ fixation, the stomach and proximal duodenum were removed, opened along the greater curvature, pinned on a cork with mucosa upward, and immersed in 10% formaldehyde until further processing (Szabo, S. et al, J. Pharmacol. Meth. 13:59-66, 1985). The gastric lesions were then evaluated by direct visual inspection.
For comparative purposes, a semiquantitative scale of 0-3 was used to assess the extent of gastric mucosal lesions (Scabo et al., 1981, 1983). According to this scale, a score of 0 indicates a normal mucosa; 1 represents the appearance of between 1 and 4 small petechiae; 2 indicates the presence of 5 or more petechiae or hemmorhagic streaks up to 4 mm in length; 3 represents the appearance of erosions longer than 5 mm or confluent hemorrhages.

Row | Compound | inhibition of the prostaglandin synthetase system [1] | analgesic (pain-relieving) effect / potency relative to naproxen ([2]; po) | % Inhibition of Edema Volume ([3]; 20 mg/kg oral) [%] | Paw Volume (edema volume) ([3]; 20 mg/kg oral) [µL] | % Inhibition of Edema Volume ([3]; 40 mg/kg oral) [%] | Paw Volume (edema volume) ([3]; 40 mg/kg oral) [µL] | behavioral activity and cardiovascular effects [4] | antagonism of the stimulatory effect of THC on prostaglandin synthesis (prostaglandin synthesis) | behavioral activity and cardiovascular effects [5] | ulcer / gastric lesion formation (in words) (Rat Ulcerogenicity Test; 50 mg/kg, directly into the stomach) | Incidence (number of rats with lesions/total tested) (Rat Ulcerogenicity Test; 50 mg/kg) | Mean Score of gastric mucosal lesions (Rat Ulcerogenicity Test; 50 mg/kg) | gastric lesions / gastrointestinal damage (in words) (Rat Ulcerogenicity Test; 100 mg/kg, half the therapeutic dose, into the stomach) | Incidence (number of rats with lesions/total tested) (Rat Ulcerogenicity Test; 100 mg/kg) | Mean Score of gastric mucosal lesions (Rat Ulcerogenicity Test; 100 mg/kg) | Latency (percent change of the mean reaction time compared to predrug values) [2] | Incidence (number of rats with lesions/total tested) (Rat Ulcerogenicity Test; 10 mg/kg) | Mean Score of gastric mucosal lesions (Rat Ulcerogenicity Test; 10 mg/kg) | Incidence (number of rats with lesions/total tested) (Rat Ulcerogenicity Test; 20 mg/kg) | Mean Score of gastric mucosal lesions (Rat Ulcerogenicity Test; 20 mg/kg)
1 | CCCCCc1cc(O)c2c(c1)OC(C)(C)[C@@H]1CCC(C(=O)O)=CC21 (single isomer, unassigned) [Δ^1 -THC-7-oic-acid] | potent inhibitor of the prostaglandin synthetase system | merely equivalent to that of naproxen; also recorded: exhibits analgesic activity with a potency similar to that of naproxen | 53 | 9 ± 12 | 79 | 4 ± 13 | did not show the behavioral activity or the cardiovascular effects characteristic of the parent substance, THC | dramatic lowering of the stimulatory effect of THC on prostaglandin synthesis | did not show the behavioral activity or the cardiovascular effects characteristic of the parent substance, THC | did not induce ulcer formation; also recorded: does not induce the formation of gastric lesions | 0/10 | 0.0 | – | – | – | – | – | – | – | –
2 | CC(=O)Oc1ccccc1C(=O)O [Aspirin] | – | – | – | – | – | – | – | – | – | – | – | – | induced the formation of gastric lesions in each test animal; also recorded: each of the experimental animals experiences gastrointestinal damage | 10/10 | 1.9 | – | – | – | – | –
3 | COc1ccc2c(c1)c(CC(=O)O)c(C)n2C(=O)c1ccc(Cl)cc1 [Indomethacin, reference compound] | – | – | 100 | -13 ± 17 | – | – | – | – | – | – | – | – | – | – | – | 52.7 and 51.1 | 2/5 | 0.6 | 6/11 | 0.77

— US4847290A, “Delta 1-thc-7-oic acid and analgesic and anti-inflammatory agents” (priority 1987, dated 1989)
